For data set [1] the following is noted: primates, daily doses of 1,000 mg/kg for 9 months; cited from earlier work.
The test system of the next data set is P. falciparum 7G8. In words: in vitro growth inhibition of P. falciparum 7G8. The data set is classed as cell-based. The settings on record: Plasmodium falciparum.
For data set [2] the following is noted: cited from earlier work.
The test system of another data set is P. knowlesi H1. In words: in vitro growth inhibition of P. knowlesi H1 cultured in rhesus erythrocytes. The data set is classed as cell-based. Particulars: Plasmodium knowlesi, Erythrocyte, in Macaca mulatta. The text has this:
(§1) To identify a relationship between senicapoc activity and human erythrocytes, P. knowlesi H1 cultured in rhesus erythrocytes and P. knowlesi YH-1 adapted for culture in human erythrocytes were each treated with senicapoc. There was no difference between the senicapoc IC50s for H1 and YH-1 (P=0.14) (Table 1). Senicapoc was similarly effective against parasitized human and rhesus erythrocytes.

Data set [3] relates to P. falciparum 3D7. The data set is described as follows: in vitro growth inhibition of P. falciparum 3D7 over one asexual cycle. The data set is classed as cell-based. The settings on record: Plasmodium falciparum.
From the text: This nonlinear regression curve is representative of seven assays, each performed in triplicate.
The subject of another data set is P. falciparum W2mef. The data set is described as follows: microbe, parasite or virus in culture. The settings on record: Plasmodium falciparum; for IC50: read-out: IC50 (mean ± 95% confidence interval). The class given is cell-based.
The test system of data set [4] is P. falciparum 3D7. The data set is described as follows: growth inhibition through the 48-hour asexual blood stage by microscopy and flow cytometry. Particulars: P<0.008. The class given is cell-based, Plasmodium falciparum.
Experimental: Parasitemia was determined by flow cytometry and confirmed with microscopy (not shown). […] Data presented are representative of three replicates.
Mean fluorescence intensity (WI), determined by flow cytometry, is shown as a measure of parasite viability. […] The data point for “No drug” at 48 h was gated for schizonts only (20% of infected cells) to eliminate signal from reinvaded ring-stage parasites. Data for other time points were not gated, as schizonts represented 5% of infected cells.
To determine senicapoc's activity through the 48-hour asexual blood stage of the parasite, growth inhibition of P. falciparum 3D7 was characterized throughout the cycle by microscopy and flow cytometry.
For data set [5] the following is noted: human and animal studies for SCD; cited from earlier work.
The conditions of data set [6]: patients with sickle cell disease; cited from earlier work.
In another data set the test system is P. yoelii. The class given is in vivo. Particulars: IK-1-/- mice, 400 mg/kg twice daily, days 8 to 15.
A further data set deals with human Plasmodium strains. The data set is described as follows: in vitro growth inhibition, all human Plasmodium strains tested. The class given is cell-based.
The next data set relates to P. yoelii 17X-NL. The data set is described as follows: in vivo efficacy against blood-stage parasites in infected C57BL/6 mice. The protocol: C57BL/6 mice infected with P. yoelii 17X-NL were treated by gavage with vehicle or senicapoc 400 or 800 mg/kg daily from days 2 to 10 post-infection (highlighted area) to mimic a preventive therapy.
FIG. 7 is a line graph showing senicapoc suppressed parasite growth in an in vivo murine model following established infection. C57BL/6 mice infected with P. yoelii 17X-NL were treated with vehicle or senicapoc 400 mg/kg twice daily from day 8 to day 15 postinfection (highlighted area) to mimic treatment of an active infection.
To establish in vivo efficacy against blood-stage parasites, C57BL/6 mice infected with P. yoelii 17X-NL (nonlethal strain) were treated with vehicle or senicapoc. […] Parasitemia increased after the drug was stopped (FIG. 6).

For data set [7] the following is noted: canines; cited from earlier work.
The subject of another data set is P. knowlesi YH-1. The data set is described as follows: in vitro growth inhibition of P. knowlesi YH-1 adapted for culture in human erythrocytes. The class given is cell-based. Particulars: Plasmodium knowlesi, Erythrocyte.
From the text: as §1

For data set [8] the following is noted: patients with SCD; cited from earlier work.
[9] abbreviates: P. falciparum 7G8, Res CQ, read-out: IC50 (mean ± 95% confidence interval).
The mark [10] stands for this setting: read-out: IC50 (mean ± 95% confidence interval).
[11] abbreviates: read-out: IC90 (mean ± 95% confidence interval).
[12] abbreviates: P. falciparum 3D7, read-out: IC50 (mean ± 95% confidence interval).

Like-named read-outs stand apart in the source and are kept apart here.

Regarding `NC(=O)C(c1ccccc1)(c1ccc(F)cc1)c1ccc(F)cc1` [senicapoc, 2,2-bis(4-fluorophenyl)-2-phenylacetamide], the tolerability entry in data set [1] and in data set [5] was “well tolerated” each time. Besides, the IC50 – broadly, the concentration that inhibits the measured activity by half – in the data set with P. falciparum 7G8 (setting [9]) was determined as 10.9 ± 2.3 µM; with P. knowlesi H1 (setting [10]) it was 17.5 ± 6.74 µM; in the data set on P. falciparum 3D7 [3] (setting [12]), 6.74 ± 0.25 µM; in the data set on P. falciparum 3D7 [3] (blood-stage P. falciparum 3D7, FIG. 1, read-out: IC50), 6.7 µM; in the data set on P. falciparum W2mef, 9.24 ± 3.13 µM; in the data set on P. knowlesi YH-1 (setting [10]) it was 11 ± 1.38 µM. Besides, the IC90 – broadly, the concentration at which the effect reaches the 90% level – in the data set on P. falciparum 7G8 (P. falciparum 7G8, Res CQ, read-out: IC90 (mean ± 95% confidence interval)) was determined as 22.3 ± 9.52 µM; in the data set with P. knowlesi H1 (setting [11]) it was 31.4 ± 11.8 µM; in the data set with P. falciparum 3D7 [3] (P. falciparum 3D7, read-out: IC90 (mean ± 95% confidence interval)) it was 10.2 ± 2.07 µM; with P. falciparum W2mef (setting [11]), 12.3 ± 1.82 µM; with P. knowlesi YH-1 (setting [11]), 37.4 ± 1.19 µM. In addition, the protein binding result in [2] is “highly protein bound”. Also, the “Nucleic acid content measured by mean fluorescence intensity (MFI)” value in the data set with P. falciparum 3D7 [4] (at 36 h, treated cultures) is “weaker”. The “Parasitemia measured by flow cytometry” value in the data set with P. falciparum 3D7 [4] (by 48 h postinvasion, treated cultures compared to control) is “reduced”. The “peak concentrations achieved in human trials” value in data set [6] was 337 nM. Besides, the “activity against P. yoelii” value in the data set with P. yoelii was “active”. Moreover, the “IC90 higher than the IC50” value in the data set on human Plasmodium strains is reported as less than 2 fold. Further, the parasitemia is 4.3% in the data set on P. yoelii 17X-NL (prophylaxis on postinoculation days 2 to 10, by day 10, vehicle 12%, P=0.04) and “lower parasitemia” with P. yoelii 17X-NL (treatment 400 mg/kg twice daily on postinoculation days 8 to 15, beyond day 13, not statistically significant (P=0.058)). Also, in data set [7], the “serum concentrations at which cardiotoxicity developed” value was “exceeded 18 M”. Further, the “frequency of vasoocclusive pain episodes” value in data set [8] is listed as “failed to modify”. Further, the physiological disease markers result in [8] is on record as “improved”.
Turning to `OC(c1cc(C(F)(F)F)nc2c(C(F)(F)F)cccc12)C1CCCCN1` (stereo not drawn) [MQ, mefloquine], the IC50 was determined as 0.00363 ± 0.00058 µM in the data set with P. falciparum 7G8 (setting [9]), 0.0101 ± 0.00783 µM in the data set on P. falciparum 3D7 [3] (setting [12]) and 0.0267 ± 0.0155 µM with P. falciparum W2mef.
For `C[C@H]1[C@@H](O)O[C@@H]2O[C@@]3(C)CC[C@H]4[C@H](C)CC[C@@H]1[C@@]24OO3` [DHA, dihydroartemisinin] the same measures were 0.00165 ± 0.00124 µM, 0.00273 ± 0.00155 µM and 0.00516 ± 0.00428 µM.
Take `CCN(CC)CCCC(C)Nc1ccnc2cc(Cl)ccc12` (stereo not drawn) [CQ, chloroquine]: the IC50 was 0.0979 ± 0.0204 µM with P. falciparum 7G8 (7G8, read-out: IC50 (mean ± 95% confidence interval)); 0.0156 ± 0.00331 µM in the data set with P. falciparum 3D7 [3] (3D7, read-out: IC50 (mean ± 95% confidence interval)); 0.316 ± 0.135 µM in the data set with P. falciparum W2mef.

These data come from US10179115B2, “Methods for treating malaria using potassium channel inhibitors” (THE CHILDREN'S MEDICAL CENTER CORPORATION, priority 2015, dated 2019).
